Where two headings read alike, the source gives them in different places. Peptide text beside a SMILES is read from it. * marks the point of attachment. Cbz = O=C(OCc1ccccc1)*

In assay [1] the target is T1, HDAC2 (Homo sapiens, UniProt Q92769).
T1 construct: HDAC2 was immunoprecipitated for analysis of enzymatic activity; endogenous in cells; host or cells: alveolar macrophages from patients with COPD; HDAC2 immunoprecipitated with the Santa Cruz antibody
The experiment in a line: Cell-free denitrosylation and activity of HDAC2 (cell lysates, IP-HDAC2). In kind it is biochemical. As to the method: (§1) HDAC activity was measured using a fluorescent derivative of ε-acetyl-lysine from Enzo life sciences (Farmingdale, N.Y.) according to the manufacturer's recommendations. HDAC2 was immunoprecipitated for analysis of enzymatic activity.
(§2) Macrophage cell or lung tissue extracts were prepared by using 100 μL of immunoprecipitation buffer (50 mM Tris-HCl, pH 8.0, 150 mM NaCl, 1.0% Triton X-100, 0.5% NP-40, 0.1% SDS, 0.5% deoxycholate, and complete protease inhibitor cocktail) from Roche (Morristown, N.J.). The lysis mixture was incubated on ice for 15 minutes and microcentrifuged for 10 minutes at 4° C. Extracts were precleared with 20 μL protein A/G sepharose beads (a 50:50 mix) from Thermo scientific (Rockford, Ill.) and 2 μg of normal IgG. After microcentrifugation, 20 μL of protein A/G sepharose conjugated with 5 μg of antibody was used to precipitate HDAC2 (Santa Cruz Biotechnology, Santa Cruz, Calif.) overnight at 4° C. with rotation. The immune complexes were pelleted with gentle centrifugation, washed twice with 1 mL of immunoprecipitation buffer, and divided equally for the final wash for the activity assay and immunoblotting. For the HDAC assay, immunoprecipitates were resuspended in the activity assay buffer (50 mM TrisHCl, pH 8.0; 10% glycerol; 1 mM dithiothreitol; 0.1 mM EDTA, complete protease inhibitor cocktail). For HDAC2-specific western blotting, immune complexes were washed three times with the immunoprecipitation buffer and finally resuspended in Laemmli buffer for the SDS-PAGE.
S-nitrosylated proteins were detected by using the nitrate/nitrite fluorometric assay kit from Cayman chemicals (Ann Arbor, Mich.) according to the manufacturer's instructions. For HDAC2-specific nitrosylation detection, cells were lysed in buffer (50 mM Tris-HCl, pH 8.0, 150 mM NaCl, 1% Nonidet P-40, 0.5% deoxycholic acid, 0.1% SDS). These lysates were then subjected to immunoprecipitation by using an anti-HDAC2 antibody as described above. The immunoprecipitates were washed twice with lysis buffer and twice with PBS. The pellets were resuspended in 500 μL of PBS. After the addition of 100 μM HgCl2 and 100 μM DAN, the samples were incubated in the dark at 25° C. for 30 minutes, and 1 M NaOH was added. The generated fluorescent triazole from the reaction of the DAN with the NO released from the HDAC2 protein was measured by using an excitation wavelength of 375 nm and an emission wavelength of 450 nm. As a negative control, the antibody alone in lysis buffer was immunoprecipitated. The resulting background fluorescence intensity was subtracted for each experiment.

For assay [2], the target named is recombinant HDAC2 (rHDAC2) (Homo sapiens, UniProt Q92769). The experiment in a line: Cell-free enzymatic activity of recombinant HDAC2. In kind it is biochemical. The procedure:
as §1

In assay [3] the test system is IL-8. The experiment in a line: Corticosteroid responsiveness: basal and LPS-induced IL-8 secretion by alveolar macrophages. It counts as cell-based, human. The procedure:
(§3) For inducing corticosteroid resistance, PMs were exposed to cigarette smoke condensate (CSC, 100 μg/ml; Murty Pharmaceuticals, Lexington, Ky.) for 16 h. Exposure to S-nitrosoglutathione (GSNO, 10 μM) was limited to 4 h. […] For assessing corticosteroid responsiveness, macrophages were incubated with dexamethasone (1 μM, Sigma) for 1 h followed by LPS (100 ng/ml, Sigma) for additional 4 h.
For human IL-8 and mouse IL-6 and MCP-1 proteins, Quantikine ELISA kits from R&D systems (Minneapolis, Minn.) were used according to the manufacturer's instructions.

The subject of assay [4] is HDAC2. The experiment in a line: Posttranslational modification of HDAC2 in alveolar macrophages (immunoblot, DAN, biotin-switch). It counts as cell-based, human. As to conditions: for levels of SNO-HDAC2: GSNO-exposed alveolar macrophages. As to the method: S-nitrosylation of proteins was analyzed by anti-SNO antibody, biotin switch assay, and or 2,3-diaminonapthalene (DAN) assay. […] Detail methodology is described in supplementary data.
as §2
For HDAC2-specific nitrosylation detection, cells were lysed in buffer (50 mM Tris-HCl, pH 8.0, 150 mM NaCl, 1% Nonidet P-40, 0.5% deoxycholic acid, 0.1% SDS). […] The pellets were resuspended in 500 μL of PBS.
This assay was performed in the dark.
The Image J program was used for densitometry analyses.

Assay [5] concerns glutathione. The experiment in a line: Intracellular glutathione levels in COPD macrophages. It counts as cell-based, human. To be noted: COPD alveolar macrophages.
Assay [6] deals with HDAC2. It counts as cell-based, human. As to the method: as §3, §1, §2
For assay [7], the system named is Pseudomonas aeruginosa. The experiment in a line: Clearance of bacteria in vitro by alveolar macrophages (PA). In kind it is cell-based. As to conditions: COPD alveolar macrophages. The procedure:
Human alveolar macrophages were purified from individual BAL samples by centrifugation and seeded onto 6-well tissue culture plates. After incubation for 2 h, non-adherent cells were removed and the adherent cells were incubated with R, S-sulforaphane (5 μM; LKT Laboratories, Inc., St. Paul, Minn.) and or DMSO in RPMI 1640 culture medium with 10% FBS and 1% penicillin-streptomycin (Invitrogen, Carlsbad, Calif.). After 16-20 h, adherent cells were scraped, suspended in RPMI 1640 culture media and plated onto 96-well tissue culture plates for bacterial phagocytosis and clearance assays. […] For MARCO antibody-depletion, alveolar macrophages were incubated with human anti-MARCO antibody (1 μg/ml; (Hycult, Uden, The Netherlands) for 4 hours prior to bacterial challenge.
Sputum isolates of nontypeable H. influenzae and P. aeruginosa obtained from patients with COPD at the Department of Veterans Affairs, Western New York Healthcare System were used (S. Sethi, N. Evans, B. J. Grant, T. F. Murphy, N Engl J Med 347, 465 (Aug. 15, 2002); C. S. Berenson, M. A. Garlipp, L. J. Grove, J. Maloney, S. Sethi, J Infect Dis 194, 1375 (Nov. 15, 2006); T. F. Murphy et al., Am J Respir Crit Care Med 177, 853 (Apr. 15, 2008); T. F. Murphy, A. L. Brauer, A. T. Schiffmacher, S. Sethi, Am J Respir Crit Care Med 170, 266 (Aug. 1, 2004)). For bacterial growth, H. influenzae was cultured on chocolate agar or grown in brain heart infusion broth supplemented with 20 μg/mlNAD and 10 μg/ml hemin at 35° C. in 5% CO2. P. aeruginosa was cultured on LB agar plates or in LB broth at 37° C. For FITC-labeling of bacteria, heat inactivated PA and NTHI (10^9 CFU/ml) were resuspended in 1 ml of labeling buffer (0.1 M NaHCO3, pH 9.2) and incubated with fluorescein isothiocyanate (FITC) (Sigma) under constant stiffing in the dark at room temperature for 1 h. Finally, bacteria were washed three times with PBS and dialyzed overnight against PBS. FITC-labeled bacteria were resuspended with PBS at a concentration of 10^9/ml.
After treatment, macrophages (10^5 cells) were incubated with bacteria (PA or NTHI) for 4 h. Subsequently, 100 μL of cell free culture medium was aseptically plated and cultured on tryptose blood and or chocolate agar plates at 37° C. The number of bacterial colonies was counted after 24 h.

In assay [8] the test system is NO. The experiment in a line: NO levels and iNOS expression in alveolar macrophages. It counts as cell-based, human. To be noted: COPD alveolar macrophages, vs vehicle. The procedure: as §3, §1
(§4) Total RNA was extracted from the cells by lysis and specific binding to a silica membrance (Qiagen RNeasy kit, Qiagen, Valencia, Calif.), and qRT-PCR was performed by using primers and probe sets for human IL-8, NQO1, GCLM, and iNOS (Assay-on-Demand, Applied Biosystems, Foster City, Calif.). A real-time fluorescent PCR system (ABI 7000 Taqman system, Applied Biosystems) was used to perform these assays. β-actin was used as the normalization control.

The test system of assay [9] is IL-8 promoter. The experiment in a line: ChIP of IL-8 promoter (histone acetylation, HDAC2 binding) in alveolar macrophages. It counts as cell-based, human. The procedure:
as §3
Chromatin immunoprecipitation was performed as described previously (Hogg, J. C. & Timens, W., Annu Rev Pathol (2008)). Briefly, cells were fixed in ˜1% formaldehyde in cell growth media for 10 minutes followed by glycine fixation. Cells were then sonicated in ChIP-lysis buffer containing a protease inhibitor cocktail after incubation on ice for 30 minutes. […] sonication, the samples were spun at maximum speed for 12 minutes in a cold microcentrifuge. The supernatants were then addressed as input samples. A part of the input sample was precleared by using a 50% slurry of protein A/G beads prepared in immunoprecipitation (IP) buffer for 2 hours in the cold, following which the beads were centrifuged out and the supernatant was used for IP. Then the precleared samples were incubated with 2 μg of panacetylated histone H4 antibody (ChIP assay kit; Upstate Biotechnology) or anti-HDAC2 antibody from Santa Cruz Biotechnology. As a control, anti-rabbit IgG antibody was added for 1 hour in the cold. The protein A/G bead slurry was added to each reaction and was rotated overnight. The next day, the beads were washed extensively, and the DNA was reverse crosslinked, eluted in elution buffer, and stored at −80° C. until used for sequencing or PCR validation assays. […] This immunoprecipitated DNA was used for PCR amplification by using the specific gene (IL-8 for humans and MCP-1 for mice) promoter PCR assays. PCR primers were used for the IL-8 promoter (forward: 5′-[…]-3′ and reverse: 5′-[…]-3′) and the MCP-1 promoter (forward: 5′-[…]-3′ and reverse: 5′-[…]-3′).

Assay [10] has as its system HDAC2. In kind it is cell-based, human. As to conditions: COPD alveolar macrophages. As to the method:
as §3
All immunoblots were performed by using protocols as described previously (Barnes, P. J., N Engl J Med 343, 269-280 (2000)). Rabbit anti-HDAC2 antibody from Santa Cruz Biotechnology (Santa Cruz, Calif.) was used at 1:500 dilutions. Rabbit anti-5-nitroso-cysteine antibody from Alpha diagnostics was used at 1:500 dilutions. Rabbit anti-nitro-tyrosine antibody from Cell Signaling Technology, was used at 1:250 dilution. Rabbit anti-ubiquitin antibody from Santa Cruz Biotechnology (Santa Cruz, Calif.) was used at 1:1000 dilutions. Rabbit anti-GR antibody from Santa Cruz Biotechnology (Santa Cruz, Calif.) was used at a dilution of 1:1000. Rabbit anti-MMP9 antibody from Sigma Aldrich was used at 1:500 dilutions. Rabbit anti-acetyl-lysine antibody from Abcam was used at 1:750 dilutions. Rabbit anti-lamin-B1 from Santa Cruz Biotechnology (Santa Cruz, Calif.) was used at 1:1000 dilutions as a loading control. The Image J program was used for densitometry analyses.
as §4

Where [11] appears, read: cell lysates incubated with GSH.
The mark [12] stands for this setting: COPD alveolar macrophages, result in words.

T1 sequence (Q92769 whole entry): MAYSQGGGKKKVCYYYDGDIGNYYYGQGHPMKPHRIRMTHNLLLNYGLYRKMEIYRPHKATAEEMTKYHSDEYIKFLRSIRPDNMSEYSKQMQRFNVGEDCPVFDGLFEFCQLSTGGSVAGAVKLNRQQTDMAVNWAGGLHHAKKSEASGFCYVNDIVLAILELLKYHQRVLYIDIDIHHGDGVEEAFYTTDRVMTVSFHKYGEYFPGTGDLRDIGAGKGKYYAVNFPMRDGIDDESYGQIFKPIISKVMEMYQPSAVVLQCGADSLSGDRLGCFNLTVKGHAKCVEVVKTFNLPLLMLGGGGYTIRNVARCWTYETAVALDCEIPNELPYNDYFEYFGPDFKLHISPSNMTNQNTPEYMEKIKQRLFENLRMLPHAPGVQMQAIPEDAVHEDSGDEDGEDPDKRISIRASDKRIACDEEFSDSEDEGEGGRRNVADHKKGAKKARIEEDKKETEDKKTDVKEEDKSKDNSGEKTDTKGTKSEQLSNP
recombinant HDAC2 (rHDAC2), sequence (Q92769 whole entry, species assumed): as the sequence (Q92769 whole entry) above

On to `N[C@@H](CCC(=O)N[C@@H](CS)C(=O)NCC(=O)O)C(=O)O` [GSH, glutathione], for which the “S-nitrosylation and enzymatic activity of GSNO-exposed IP-HDAC2” value in assay [1] (after incubation with GSH) is “reversed by GSH treatment”. Also, in [1] (setting [11]), the HDAC2 activity result is reported as “concurrent increase in HDAC2 activity” and the “nitrosylation (DAN assay)” value is given as “denitrosylation by GSH”. For the same compound, the “rHDAC2 enzymatic activity after GSNO treatment” value in [2] (in the presence of GSH) is “restored by GSH”.

On to `CCOC(=O)CNC(=O)[C@H](CS)NC(=O)CC[C@H](N)C(=O)O` [GSH-e, GSH-ethyl ester], for which the “repressive effect of DEX on basal and LPS-induced IL-8 secretion” value in assay [3] (GSNO exposed COPD alveolar macrophages, GSH-e 1 mM) is “significantly increased the repressive effect of DEX”. In addition, the “levels of SNO-HDAC2” value in assay [4] is given as “significant reduction in the levels of SNO-HDAC2”. The intracellular glutathione levels entry in assay [5] is “increased intracellular glutathione levels”. In addition, the HDAC2 enzymatic activity entry in [6] (treatment after GSNO exposure of alveolar macrophages) is reported as “significantly elevated HDAC2 enzymatic activity”. In addition, the bacterial clearance result in assay [7] is “failed to improve bacterial clearance”.

For the compound `N[C@@H](CCC(=O)N[C@@H](CSN=O)C(=O)NCC(=O)O)C(=O)O` [GSNO, S-nitrosoglutathione], in assay [1] (GSNO exposure), the “S-nitrosylation of IP-HDAC2” value is on record as “elevated S-nitrosylation” and the “enzymatic activity of IP-HDAC2” value was “decreased enzymatic activity”. In [3] (GSNO exposure), the DEX resistance result is “did not further increase DEX resistance”. Further, the “LPS-induced IL-8 secretion” value in assay [3] (GSNO treatment (10 μM, 4 h)) is on record as “moderately augmented LPS-induced IL-8 secretion”. The HDAC2 enzymatic activity entry in assay [6] (setting [12]) was “decreased HDAC2 enzymatic activity”. For the same compound, in assay [2] (with GSNO), the rHDAC2 enzymatic activity entry was “significantly inhibited rHDAC2 enzymatic activity”.

As to `COC(=O)[C@@H](N)CCCNC(=N)N[N+](=O)[O-]` [L-NAME, L-nitroarginine methyl ester], the NO levels entry in [8] is given as “suppressed NO generation”. Also, the “DEX's repressive effect on basal and LPS-induced IL-8 expression (DEX responsiveness)” value in assay [3] (protein and mRNA) is recorded as “failed”. In addition, in [4] (immunopurified HDAC2 from alveolar macrophages, compared with vehicle), the “tyrosine nitration of HDAC2 (nitrotyrosine-HDAC2)” value is given as “significantly decreased levels of nitrotyrosine-HDAC2”. The HDAC2 enzymatic activity entry in assay [6] (setting [12]) is listed as “failed to increase HDAC2 enzymatic activity”.

Consider `CC(C)C[C@@H](C=O)NC(=O)[C@H](CC(C)C)NC(=O)[C@H](CC(C)C)NC(=O)OCc1ccccc1` [MG132] (Cbz-Leu-Leu-Leu-aldehyde), for which the “HDAC2 binding in the IL-8 promoter” value in assay [9] (COPD alveolar macrophages) is “no increase”. The HDAC2 enzymatic activity entry in assay [6] (setting [12]) is given as “no increase in HDAC2 enzymatic activity”. In addition, in [10], the HDAC2 protein levels result is given as “increase in total HDAC2 protein”.

For the compound `CC(=O)N[C@@H](CS)C(=O)O` [NAC, N-acetyl cysteine], the “levels of SNO-HDAC2” value in assay [4] is “failed to ameliorate SNO-HDAC2 levels”. The intracellular glutathione levels result in assay [5] is “increased intracellular glutathione levels”. For the same compound, in [7], the bacterial clearance result is reported as “failed to improve bacterial clearance”.

Turning to `CC(/C=C/C(=O)NO)=C\[C@@H](C)C(=O)c1ccc(N(C)C)cc1` [TSA, trichostatin], in assay [9] (cotreatment with sulforaphane, with and without DEX), the “basal and LPS-induced histone acetylation in the IL-8 promoter region” value is “ablated sulforaphane repressed basal and LPS-induced histone acetylation”.
